# Assay results from patent publication US10030016B2 (Sunesis Pharmaceuticals, Inc., priority 2009, dated 2018).
# Where two headings read alike, the source gives them in different places.
# How the values were obtained:
# [1] = test system: phospho-akt (Thr308) in PC-3 cells; assay: Inhibition of phospho-akt (Thr308) in PC-3 cells, MSD phospho-akt 308 ELISA kit; type: cell-based; conditions: Homo sapiens, inhibition of P308 Akt in PC-3 cells using MSD, 2 hours, no serum, read-out: EC50
# Summary of the method: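 Serum-free 2 h compound exposure of overnight-seeded PC-3 cells, threefold dilution series; lysates analysed on blocked MSD plates (3% BSA) for Thr308-phosphorylated Akt, normalised between DMSO and 5 μM wortmannin wells.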
# PDK1 = PDK1 (Homo sapiens (Human), UniProt O15530); assay: PDK1 kinase assay (coupled PDK1/AKT/FAM-crosstide assay, IMAP fluorescence polarization); type: biochemical; conditions: inhibition of PDK1 in vitro
# PDK1, sequence (O15530 51-359): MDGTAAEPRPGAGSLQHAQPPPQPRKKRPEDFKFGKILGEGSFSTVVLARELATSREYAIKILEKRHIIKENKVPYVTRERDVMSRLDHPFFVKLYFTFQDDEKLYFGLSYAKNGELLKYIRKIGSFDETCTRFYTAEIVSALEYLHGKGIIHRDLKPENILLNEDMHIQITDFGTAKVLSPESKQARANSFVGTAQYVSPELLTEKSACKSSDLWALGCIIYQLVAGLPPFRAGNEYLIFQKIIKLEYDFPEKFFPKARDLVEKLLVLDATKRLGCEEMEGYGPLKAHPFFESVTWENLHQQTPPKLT
# Summary of the method: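 GST-tagged PDK1 (aa 51-359, 0.75 nM) was coupled to unphosphorylated GST-AKT2 140-467-PIFtide (10 nM) and 100 nM FAM-crosstide at 40 μM ATP, in Tris pH 7.2 buffer, for 30 min at 25 °C. Crosstide phosphorylation was read by IMAP fluorescence polarization (ΔmP) and fitted with a 4-parameter curve.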
EC50 [1] [nM],IC50 (PDK1) [nM],"EC50 ([1]; PC-3, 2 h) [nM]",SMILES
1000 to 10000,> 5000,,"Nc1n[nH]c2ncc(-c3ccc(CNc4ncc(C(F)(F)F)cc4C(=O)N[C@@H](CO)c4ccc(Br)cc4)cc3)cc12 [Example 283, (R)-2-(4-(3-amino-1H-pyrazolo [3,4-b]pyridin-5-yl)benzylamino)-N-(1-(4-bromophenyl)-2-hydroxyethyl)-5-(trifluoromethyl)nicotinamide]"
1000 to 10000,> 5000,,"Nc1n[nH]c2ncc(-c3ccc(CNc4ncc(C(F)(F)F)cc4C(=O)NC4CCC(F)(F)CC4)cc3)cc12 [Example 284, 2-(4-(3-amino-1H-pyrazolo [3,4-b]pyridin-5-yl)benzylamino)-N-(4,4-difluorocyclohexyl)-5-(trifluoromethyl)nicotinamide]"
> 10000,1000 to 5000,,"CN1CCN(Cc2ccc(NC(=O)c3cc(C(F)(F)F)cnc3NCc3ccc(-c4cnc5[nH]nc(N)c5c4)cc3)cc2)CC1 [Example 285, 2-(4-(3-amino-1H-pyrazolo [3,4-b]pyridin-5-yl)benzylamino)-N-(4-((4-methylpiperazin-1-yl)methyl)phenyl)-5-(trifluoromethyl)nicotinamide]"
< 1000,< 100,,Nc1n[nH]c2ncc(-c3ccc(CNc4ncc(C(F)(F)F)cc4C(=O)NCc4ccc(F)c(Cl)c4)cc3)cc12 [Example 286]
1000 to 10000,< 100,,"Nc1n[nH]c2ncc(-c3ccc(CNc4ncc(C(F)(F)F)cc4C(=O)Nc4ccncc4)cc3)cc12 [Example 288, 2-(4-(3-amino-1H-pyrazolo [3,4-b]pyridin-5-yl)benzylamino)-N-(pyridin-4-yl)-5-(trifluoromethyl) nicotinamide]"
< 1000,< 100,,"Nc1n[nH]c2ncc(-c3ccc(CNc4ncc(C(F)(F)F)cc4C(=O)Nc4cccnc4)cc3)cc12 [Example 289, 2-(4-(3-amino-1H-pyrazolo [3,4-b]pyridin-5-yl)benzylamino)-N-(pyridin-3-yl)-5-(trifluoromethyl) nicotinamide]"
1000 to 10000,> 5000,,"CN(C(=O)c1cc(C(F)(F)F)cnc1NCc1ccc(-c2cnc3[nH]nc(N)c3c2)cc1)c1ccc(F)cc1 [Example 290, 2-(4-(3-amino-1H-pyrazolo [3,4-b]pyridin-5-yl)benzylamino)-N-(4-fluorophenyl)-N-methyl-5-(trifluoromethyl) nicotinamide]"
< 1000,< 100,,"Nc1n[nH]c2ncc(-c3ccc(CNc4ncc(C(F)(F)F)cc4C(=O)Nc4ccc(F)cc4F)cc3)cc12 [Example 291, 2-(4-(3-amino-1H-pyrazolo [3,4-b]pyridin-5-yl)benzylamino)-N-(2,4-difluorophenyl)-5-(trifluoromethyl)nicotinamide]"
< 1000,< 100,,"Nc1n[nH]c2ncc(-c3ccc(CNc4ncc(C(F)(F)F)cc4C(=O)Nc4ccccc4)cc3)cc12 [Example 292, 2-(4-(3-amino-1H-pyrazolo [3,4-b]pyridin-5-yl)benzylamino)-N-phenyl-5-(trifluoromethyl)nicotinamide]"
,1000 to 5000,> 10000,Nc1n[nH]c2ncc(-c3ccc(CNc4ncc(C(F)(F)F)cc4C(=O)N4CC(F)(F)C4)cc3)cc12 [Example 293]
1000 to 10000,< 100,,Nc1n[nH]c2ncc(-c3ccc(CNc4ncc(C(F)(F)F)cc4C(=O)Nc4cccc(C(F)(F)F)c4)cc3)cc12 [Example 294]
< 1000,< 100,,"Cc1cc(F)ccc1NC(=O)c1cc(C(F)(F)F)cnc1NCc1ccc(-c2cnc3[nH]nc(N)c3c2)cc1 [Example 295, 2-(4-(3-amino-1H-pyrazolo [3,4-b]pyridin-5-yl)benzylamino)-N-(4-fluoro-2-methylphenyl)-5-(trifluoromethyl)nicotinamide]"
< 1000,< 100,,Nc1n[nH]c2ncc(-c3ccc(CNc4ncc(C(F)(F)F)cc4C(=O)Nc4ccc(C(F)(F)F)cc4)cc3)cc12 [Example 296]
< 1000,< 100,,"Nc1n[nH]c2ncc(-c3ccc(CNc4ncc(C(F)(F)F)cc4C(=O)NC4CCCCC4)cc3)cc12 [Example 297, 2-(4-(3-amino-1H-pyrazolo [3,4-b]pyridin-5-yl)benzylamino)-N-cyclohexyl-5-(trifluoromethyl)nicotinamide]"
> 10000,1000 to 5000,,"Nc1n[nH]c2ncc(-c3ccc(CNc4ncc(C(F)(F)F)cc4C(=O)NC4COC4)cc3)cc12 [Example 298, 2-(4-(3-amino-1H-pyrazolo [3,4-b]pyridin-5-yl)benzylamino)-N-(oxetan-3-yl)-5-(trifluoromethyl) nicotinamide]"
1000 to 10000,< 100,,"Nc1n[nH]c2ncc(-c3ccc(CNc4ncc(C(F)(F)F)cc4C(=O)NC4CCC4)cc3)cc12 [Example 299, 2-(4-(3-amino-1H-pyrazolo [3,4-b]pyridin-5-yl)benzylamino)-N-cyclobutyl-5-(trifluoromethyl)nicotinamide]"
< 1000,< 100,,"N#Cc1ccc(NC(=O)c2cc(C(F)(F)F)cnc2NCc2ccc(-c3cnc4[nH]nc(N)c4c3)cc2)cc1 [Example 300, 2-(4-(3-amino-1H-pyrazolo [3,4-b]pyridin-5-yl)benzylamino)-N-(4-cyanophenyl)-5-(trifluoromethyl)nicotinamide]"
1000 to 10000,< 100,,"COc1cccc(NC(=O)c2cc(C(F)(F)F)cnc2NCc2ccc(-c3cnc4[nH]nc(N)c4c3)cc2)c1 [Example 301, 2-(4-(3-amino-1H-pyrazolo [3,4-b]pyridin-5-yl)benzylamino)-N-(3-methoxyphenyl)-5-(trifluoromethyl)nicotinamide]"
1000 to 10000,< 100,,"Nc1n[nH]c2ncc(-c3ccc(CNc4ncc(C(F)(F)F)cc4C(=O)NC4CCCC4)cc3)cc12 [Example 302, 2-(4-(3-amino-1H-pyrazolo [3,4-b]pyridin-5-yl)benzylamino)-N-cyclopentyl-5-(trifluoromethyl)nicotinamide]"
1000 to 10000,< 100,,"Nc1n[nH]c2ncc(-c3ccc(CNc4ncc(C(F)(F)F)cc4C(=O)Nc4ccncn4)cc3)cc12 [Example 303, 2-(4-(3-amino-1H-pyrazolo [3,4-b]pyridin-5-yl)benzylamino)-N-(pyrimidin-4-yl)-5-(trifluoromethyl)nicotinamide]"
< 1000,< 100,,"Nc1n[nH]c2ncc(-c3ccc(CNc4ncc(C(F)(F)F)cc4C(=O)Nc4ccc(Cl)cc4)cc3)cc12 [Example 304, 2-(4-(3-amino-1H-pyrazolo [3,4-b]pyridin-5-yl)benzylamino)-N-(4-chlorophenyl)-5-(trifluoromethyl)nicotinamide]"
1000 to 10000,100 to 1000,,"Nc1n[nH]c2ncc(-c3ccc(CNc4ncc(C(F)(F)F)cc4C(=O)NC4CCOC4)cc3)cc12 (stereo not shown) [Example 305, 2-(4-(3-amino-1H-pyrazolo [3,4-b]pyridin-5-yl)benzylamino)-N-(tetrahydrofuran-3-yl)-5-(trifluoromethyl)nicotinamide]"
< 1000,< 100,,"Nc1n[nH]c2ncc(-c3ccc(CNc4ncc(C(F)(F)F)cc4C(=O)Nc4cncc(F)c4)cc3)cc12 [Example 306, 2-(4-(3-amino-1H-pyrazolo [3,4-b]pyridin-5-yl)benzylamino)-N-(5-fluoropyridin-3-yl)-5-(trifluoromethyl)nicotinamide]"
1000 to 10000,1000 to 5000,,"Cn1ccc(NC(=O)c2cc(C(F)(F)F)cnc2NCc2ccc(-c3cnc4[nH]nc(N)c4c3)cc2)n1 [Example 307, 2-(4-(3-amino-1H-pyrazolo [3,4-b]pyridin-5-yl)benzylamino)-N-(1-methyl-1H-pyrazol-3-yl)-5-(trifluoromethyl)nicotinamide]"
< 1000,< 100,,"Nc1n[nH]c2ncc(-c3ccc(CNc4ncc(C(F)(F)F)cc4C(=O)N[C@@H](CO)c4ccc(F)cc4)cc3)cc12 [Example 308, (R)-2-(4-(3-amino-1H-pyrazolo [3,4-b]pyridin-5-yl)benzylamino)-N-(1-(4-fluorophenyl)-2-hydroxyethyl)-5-(trifluoromethyl)nicotinamide]"
,100 to 1000,1000 to 10000,"Nc1n[nH]c2ncc(-c3ccc(CNc4ncc(C(F)(F)F)cc4C(=O)NC[C@@H]4CCCO4)cc3)cc12 [Example 309, (S)-2-(4-(3-amino-1H-pyrazolo [3,4-b]pyridin-5-yl)benzylamino)-N-((tetrahydrofuran-2-yl)methyl)-5-(trifluoromethyl) nicotinamide]"
< 1000,< 100,,"N#Cc1cnc(NCc2ccc(-c3ccc(N)nc3)cc2)c(C(=O)NCc2cncc(F)c2)c1 [Example 310, 2-(4-(6-aminopyridin-3-yl)benzylamino)-5-cyano-N-((5-fluoropyridin-3-yl)methyl)nicotinamide]"
< 1000,< 100,,"N#Cc1cnc(NCc2ccc(-c3cnc4[nH]nc(N)c4c3)cc2)c(C(=O)NCc2cncc(F)c2)c1 [Example 311, 2-(4-(3-amino-1H-pyrazolo [3,4-b]pyridin-5-yl)benzylamino)-5-cyano-N-((5-fluoropyridin-3-yl)-5-methyl)nicotinamide]"
< 1000,< 100,,"N#Cc1cnc(NCc2ccc(-c3cnc(N)cn3)cc2)c(C(=O)NCc2cncc(F)c2)c1 [Example 312, 2-(4-(5-aminopyrazin-2-yl)benzylamino)-5-cyano-N-((5-fluoropyridin-3-yl)-methyl)nicotinamide]"
